In patent publication US6461997B1, “Triazole sulfones having herbicidal activity” (Monsanto Technology LLC, priority 1999, dated 2002):

Columns and labels:
[1] = system: SINAR (wild mustard); experiment: Pre-emergence herbicidal activity, cool season; assay type: in vivo, Sinapis arvensis; settings: lowest tested rate with 80% or greater inhibition; rates 300, 100, 30, 10 g/ha; about 14 days
In short: (§1)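 GR80 values derive from percent inhibition relative to untreated plants, read roughly 14 days after sowing and pre-emergence soil-surface treatment (compound in 50:50 acetone/water; rates typically 10, 30, 100, 300 g/ha). Warm-season weeds grew at 30/21° C day/night, cool-season ones at 18/13° C; an asterisk marks activity without reaching 80% at the highest rate.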

[2] = system: LAMPU (purple deadnettle); experiment: Pre-emergence herbicidal activity, cool season; assay type: in vivo, Lamium purpureum; settings: lowest tested rate with 80% or greater inhibition; rates 300, 100, 30, 10 g/ha; about 14 days
In short: as §1

[3] = system: SETVI (green foxtail); experiment: Pre-emergence herbicidal activity, cool season; assay type: in vivo, Setaria viridis; settings: GR80 = lowest tested rate (300, 100, 30, 10 g/ha) with 80% or greater inhibition; approx. 14 days after treating; 18/13° C.
In short: as §1

[4] = system: AGSST (creeping bentgrass); experiment: Pre-emergence herbicidal activity, cool season; assay type: in vivo, Agrostis stolonifera; settings: GR80 = lowest tested rate (300, 100, 30, 10 g/ha) with 80% or greater inhibition; approx. 14 days after treating; 18/13° C.
In short: as §1

[5] = system: AMARE (redroot pigweed); experiment: Pre-plant incorporated (PPI) herbicidal activity, warm season; assay type: in vivo, Amaranthus retroflexus; settings: for Percent inhibition AMARE: PPI application
In short: (§2)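 Cool-season species were held at 18/13° C in greenhouse or growth chamber, warm-season ones at 30/21° C in greenhouse. Test compound had been sprayed onto cover soil, mixed, and applied over the seeds. Percent inhibition against untreated pots was recorded about 14 days post-treatment.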

[6] = system: CHEAL (common lambsquarters); experiment: as above; assay type: in vivo, Chenopodium album; settings: pre-plant incorporated; GR80 = lowest tested rate with 80% or greater inhibition; approx. 14 days after treating; 30/21° C.
In short: as §2

[7] = system: PANMI (wild proso millet); experiment: as above; assay type: in vivo, Panicum miliaceum; settings: for Percent inhibition PANMI: PPI application
In short: as §2

[8] = system: LOLMG (annual ryegrass); experiment: Pre-plant incorporated (PPI) herbicidal activity, cool season; assay type: in vivo, Lolium multiflorum; settings: for Percent inhibition LOLMG: weed, PPI application
In short: as §2

[9] = system: AEGCY (jointed goatgrass); experiment: as above; assay type: in vivo, Aegilops cylindrica; settings: for Percent inhibition AEGCY: weed, PPI application
In short: as §2

[10] = system: XANST (cocklebur); experiment: Pre-plant incorporated (PPI) herbicidal activity, warm season; assay type: in vivo, Xanthium strumarium; settings: PPI application
In short: as §2

[11] = system: wheat (TRZAW); experiment: Selectivity test, PPI, cool season crop; assay type: in vivo, Triticum aestivum; settings: PPI application
In short: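 Percent inhibition relative to untreated controls, assessed roughly 14 days post-planting. Seeds were covered with a soil layer into which solvent-borne compound had been sprayed and mixed. Plants were then grown at 30/21° C. (warm season) or 18/13° C. (cool season) day/night regimes.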

[12] = pre-plant incorporated, lowest tested rate with 80% or greater inhibition, about 14 days

Structure (SMILES): C=C(CC(F)(F)S(=O)(=O)c1ncn(C(=O)N(CC)CC)n1)C[Si](C)(C)C [Example 20]
- Pre-emergence activity GR80, SINAR [1]: [empty]
- Pre-emergence activity GR80, LAMPU [2]: 100 g/ha
- Pre-emergence activity (GR80) SETVI [3]: 100 g/ha
- Pre-emergence activity (GR80) AGSST [4]: 300 g/ha
- Percent inhibition AMARE ([5]; 10 g/ha): 0%
- Percent inhibition AMARE ([5]; 30 g/ha): 0%
- Percent inhibition AMARE ([5]; 100 g/ha): 50%
- Percent inhibition AMARE ([5]; 300 g/ha): 100%
- Percent inhibition AMARE ([5]; 900 g/ha): 100%
- PPI activity (GR80) AMARE ([5]; pre-plant incorporated, GR80 = lowest tested rate with 80% or greater inhibition, approx. 14 days after treating, 30/21° C.): 300 g/ha
- PPI activity (GR80) CHEAL [6]: 30 g/ha
- Percent inhibition PANMI ([7]; 10 g/ha): 0%
- Percent inhibition PANMI ([7]; 30 g/ha): 20%
- Percent inhibition PANMI ([7]; 100 g/ha): 100%
- Percent inhibition PANMI ([7]; 300 g/ha): 65%
- Percent inhibition PANMI ([7]; 900 g/ha): 100%
- PPI activity GR80, PANMI [7, 12]: 100 g/ha
- PPI activity GR80, LOLMG [8, 12]: * (activity observed, at least at highest rate, but <80% inhibition)
- Percent inhibition LOLMG ([8]; 10 g/ha): 0%
- Percent inhibition LOLMG ([8]; 30 g/ha): 30%
- Percent inhibition LOLMG ([8]; 100 g/ha): 60%
- Percent inhibition LOLMG ([8]; 300 g/ha): 85%
- Percent inhibition LOLMG ([8]; 900 g/ha): 75%
- PPI activity GR80, AEGCY [9, 12]: * (activity observed, at least at highest rate, but <80% inhibition)
- Percent inhibition AEGCY ([9]; 10 g/ha): 0%
- Percent inhibition AEGCY ([9]; 30 g/ha): 0%
- Percent inhibition AEGCY ([9]; 100 g/ha): 0%
- Percent inhibition AEGCY ([9]; 300 g/ha): 0%
- Percent inhibition AEGCY ([9]; 900 g/ha): 0%
- Percent inhibition XANST ([10]; 10 g/ha): 0%
- Percent inhibition XANST ([10]; 30 g/ha): 0%
- Percent inhibition XANST ([10]; 100 g/ha): 0%
- Percent inhibition XANST ([10]; 900 g/ha): 50%
- Percent inhibition TRZAW ([11]; 10 g/ha): 0%
- Percent inhibition TRZAW ([11]; 30 g/ha): 0%
- Percent inhibition TRZAW ([11]; 100 g/ha): 0%
- Percent inhibition TRZAW ([11]; 300 g/ha): 40%
- Percent inhibition TRZAW ([11]; 900 g/ha): 60%
